Data: the NIST ThermoML archive (doi:10.1016/j.jct.2006.05.008)
± gives the expanded uncertainty stated by the source.

What was measured:
[1] = Molar enthalpy of transition or fusion; conditions: Adiabatic calorimetry
[2] = Adiabatic calorimetry

Row | Structure (SMILES) | Molar enthalpy of transition or fusion ([1]; Crystal) | Molar enthalpy of transition or fusion ([1]; Metastable crystal) | Triple point temperature ([2]; Crystal) | Glass transition temperature ([2]; Glass) | Triple point temperature ([2]; Metastable crystal)
1 | CCC[n+]1ccn(C)c1.[Br-] [1-methyl-3-propylimidazolium bromide] | 3.23 ± 0.0478 kcal/mol | 5.11 ± 0.0717 kcal/mol | 314.7 ± 0.5 K | -64 ± 3 °C | 310.4 ± 0.5 K
2 | CCCCn1cc[n+](C)c1.[Br-] [1-butyl-3-methylimidazolium bromide] | 5.468 ± 0.0239 kcal/mol |  | 351.35 ± 0.2 K |  | 
3 | CCn1cc[n+](C)c1.[Br-] [1-ethyl-3-methylimidazolium bromide] | 4.36 ± 0.0574 kcal/mol |  | 349.91 ± 0.2 K |  | 
